Test results as given in article PMC7078479, “Sulfamoyl Heteroarylcarboxylic Acids as Promising Metallo-β-Lactamase Inhibitors for Controlling Bacterial Carbapenem Resistance” (mBio, 2020).
Where two headings read alike, the source gives them in different places.

Key:
[1] = test system: IMP-1-producing E. coli NUBL-24; experiment: Mouse infection model, E. coli NUBL-24, survival; assay type: in vivo, mice
Experimental: (§1) All experiments were approved by the Nagoya University Animal Ethics Committee, and all experiments were performed in a manner that minimized animal suffering. Male CD1 mice (4 weeks old; 20 to 25 g body weight) were purchased from Charles River Laboratories Japan (Yokohama, Japan). E. coli NUBL-24 (blaIMP-1) and K. pneumoniae MS5674 (blaNDM-1 and blaVIM-1) strains were inoculated on LB agar plates and grown for 18 h at 37°C. Bacteria were then scraped from the plates, and their concentration was adjusted to 5 × 10^6 to 1 × 10^7 CFU in saline solution containing 5% mucin; this solution was then i.p. injected into the mice. At 1 and 3 h after infection, saline solution, MPM, inhibitors, and a combination of MPM and inhibitor were i.p. injected. Mice were monitored for 7 days to formulate survival curves, after which they were euthanized by CO2 asphyxiation.

[2] = test system: IMP-1-producing E. coli NUBL-24; experiment: Susceptibility and checkerboard testing, E. coli NUBL-24; assay type: cell-based; conditions: Escherichia coli; E. coli NUBL-24 (blaIMP-1), MPM alone
Experimental: (§2) MICs were determined via the microdilution method according to the CLSI guidelines ([38]). In brief, 5 × 10^4 bacterial cells were inoculated in 100 μl of cation-adjusted Mueller-Hinton broth (Becton, Dickinson and Company, Franklin Lakes, NJ) containing the β-lactams and appropriately diluted inhibitors. The final concentration of DMSO was maintained at 2% in the assays. The tested plates were then incubated at 35°C for 16 to 20 h. The MIC value was determined as the lowest concentration of tested β-lactams where no bacterial growth was visibly observed. The optical density at 600 nm (OD600) value was measured using a plate reader for drawing the heat maps. The FIC index value was calculated using the following equation: FIC index=MIC of β-lactam with inhibitor/MIC of β-lactam alone+MIC of inhibitor with β-lactam/MIC of inhibitor alone
(§3) Unless noted otherwise, the FIC index was defined as the lowest value among all obtained values. The synergistic effect was defined as the effect observed when the FIC index value was ≤0.5.
The initial density of E. coli NUBL-24 (blaIMP-1) (MPM MIC, 8 μg/ml) was adjusted to approximately 5 × 10^6 CFU/ml. Either MPM (1 μg/ml) alone or SFC (10 μg/ml) alone or a combination of the two was added to the bacterial solution, and then incubation was performed at 37°C. LB broth containing only bacteria was used as a control. […]

[3] = test system: P. aeruginosa PAO1/pME-NDM-1; experiment: Susceptibility testing, NDM-1-producing P. aeruginosa PAO1; assay type: cell-based; conditions: Pseudomonas aeruginosa
Experimental: as §2

[4] = test system: IMP-type MBL-producing Enterobacteriaceae; experiment: Susceptibility testing, 19 IMP-type MBL-producing Enterobacteriaceae isolates; assay type: cell-based
Experimental: as §2

[5] = test system: P. aeruginosa PAO1/pME-IMP-1; experiment: Susceptibility testing, IMP-1-producing P. aeruginosa PAO1; assay type: cell-based; conditions: Pseudomonas aeruginosa
Experimental: as §2

E. coli DH5α/pBC-NDM-1 = experiment: Susceptibility and checkerboard testing, NDM-1-producing E. coli; assay type: cell-based, Escherichia coli; conditions: for MIC: Escherichia coli
Experimental: as §2, §3

[6] = test system: P. aeruginosa PAO1/pME6032; experiment: Susceptibility testing, P. aeruginosa PAO1 with empty vector; assay type: cell-based; conditions: Pseudomonas aeruginosa, PAO1, read-out: MIC of MPM without inhibitor
Experimental: as §2

E. coli DH5α/pBC-IMP-1 = experiment: Susceptibility and checkerboard testing, IMP-1-producing E. coli; assay type: cell-based, Escherichia coli; conditions: for MIC: Escherichia coli
Experimental: as §2, §3

[7] = test system: E. coli BL21(DE3)/pET-SIM-1; experiment: Susceptibility testing, SIM-1-producing E. coli; assay type: cell-based; conditions: Escherichia coli
Experimental: as §2

[8] = test system: P. aeruginosa PAO1/pME-VIM-2; experiment: Susceptibility testing, VIM-2-producing P. aeruginosa PAO1; assay type: cell-based; conditions: Pseudomonas aeruginosa
Experimental: as §2

E. coli DH5α/pBC-TMB-2 = experiment: Susceptibility testing, TMB-2-producing E. coli; assay type: cell-based; conditions: Escherichia coli
Experimental: as §2

HeLa cells = experiment: Toxicity assay in HeLa cells (CellTiter 96 AQueous); assay type: cell-based; conditions: 24 h exposure, cell proliferation assay
Experimental: HeLa cells were seeded at 5,000 cells per well in 96-well plates and cultured in Dulbecco’s modified Eagle’s medium (DMEM) (Wako Pure Chemical Industries, Osaka, Japan). After incubation for 24 h at 37°C with 5% CO2, staurosporine (Sigma-Aldrich, St. Louis, MO) and SHCs were added to each well (final DMSO concentration was 1%), after which the plates were incubated for another 24 h. Twenty microliters of tetrazolium solution, obtained from a CellTiter 96 AQueous one-solution cell proliferation assay kit (Promega, Madison, WI), was added into each well. The plate was incubated for 3 h under the same conditions mentioned above, and the absorbance at 490 nm was measured for the determination of cell proliferation.

[9] = test system: NDM-type MBL-producing Enterobacteriaceae; experiment: Susceptibility testing, 14 NDM-type MBL-producing Enterobacteriaceae isolates; assay type: cell-based; conditions: NDM producers
Experimental: as §2

[10] = test system: IMP-1-producing Acinetobacter spp.; experiment: Susceptibility testing, 8 IMP-1-producing Acinetobacter spp. isolates; assay type: cell-based; conditions: addition of SPC, concentration not given (Fig. S5)
Experimental: as §2

[11] = test system: E. coli BL21(DE3)/pET-KHM-1; experiment: Susceptibility testing, KHM-1-producing E. coli; assay type: cell-based; conditions: Escherichia coli
Experimental: as §2

IMP-1 = target: T1, IMP-1 (Serratia marcescens, UniProt P52699); experiment: Inhibition of IPM hydrolysis by purified IMP-1, Ki by Lineweaver-Burk plots; assay type: biochemical
T1 construct: made in house
T1 sequence (P52699 19-246 limits assumed): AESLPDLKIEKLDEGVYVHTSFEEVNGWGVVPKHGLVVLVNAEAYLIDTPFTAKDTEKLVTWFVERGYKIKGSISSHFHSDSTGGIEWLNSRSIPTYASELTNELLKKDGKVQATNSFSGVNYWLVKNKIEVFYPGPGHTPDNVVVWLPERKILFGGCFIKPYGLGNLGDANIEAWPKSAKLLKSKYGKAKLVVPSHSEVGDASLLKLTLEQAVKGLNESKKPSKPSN
Experimental: (§4) MBL (10 nM) was mixed with the inhibitors and incubated for 5 min at 30°C. IPM was added to reach a concentration of 150 μM, and the velocity of IPM hydrolysis was monitored at 298 nm. The assay was performed at 30°C using 10 mM HEPES (pH 7.5) buffer containing 200 mM NaCl and 50 μg/ml bovine serum albumin (BSA) for IMP-1, NDM-1, VIM-2, and SMB-1. For SFH-1 and L1, another 10 mM HEPES (pH 7.5) buffer containing 200 mM NaCl, 20 μM ZnSO4, and 50 μg/ml BSA was used.
(§5) Initial velocities (vo) were measured after varying the concentrations of IPM and inhibitors, and inverse velocities (1/vo) were plotted against inverse IPM concentrations […]. Lineweaver-Burk plots were constructed to obtain the inhibition constant (Ki) with the competitive inhibition model using the SigmaPlot 13 suite (Hulinks).

[12] = test system: E. coli BL21(DE3)/pET-DIM-1; experiment: Susceptibility testing, DIM-1-producing E. coli; assay type: cell-based; conditions: Escherichia coli
Experimental: as §2

E. coli DH5α/pBC-VIM-2 = experiment: Susceptibility and checkerboard testing, VIM-2-producing E. coli; assay type: cell-based, Escherichia coli; conditions: for MIC: Escherichia coli
Experimental: as §2, §3

NDM-1 = target: T2, NDM-1 (Klebsiella pneumoniae, UniProt C7C422); experiment: Inhibition of IPM hydrolysis by purified NDM-1, Ki by Lineweaver-Burk plots; assay type: biochemical; conditions: IPM as substrate, competitive model, mean of three replicates; read-out: Inhibition constant Ki NDM-1
T2 construct: made in house
T2 sequence (C7C422 29-270 limits assumed): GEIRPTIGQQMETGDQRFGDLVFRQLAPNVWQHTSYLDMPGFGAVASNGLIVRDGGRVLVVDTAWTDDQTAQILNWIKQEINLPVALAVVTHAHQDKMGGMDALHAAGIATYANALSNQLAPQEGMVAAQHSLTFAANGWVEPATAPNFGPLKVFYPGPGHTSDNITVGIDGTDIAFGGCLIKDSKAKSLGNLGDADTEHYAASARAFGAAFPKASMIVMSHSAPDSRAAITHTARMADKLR
Experimental: as §4, §5

VIM-2 = target: T3, VIM-2 (Escherichia coli, UniProt Q5U7L7); experiment: Inhibition of IPM hydrolysis by purified VIM-2, Ki by Lineweaver-Burk plots; assay type: biochemical; conditions: IPM as substrate, competitive model, mean of three replicates; read-out: Inhibition constant Ki VIM-2
T3 construct: made in house
Experimental: as §4, §5

[13] = test system: E. coli BL21(DE3)/pET-SPM-1; experiment: Susceptibility testing, SPM-1-producing E. coli; assay type: cell-based; conditions: Escherichia coli
Experimental: as §2

[14] = test system: dually NDM-1/VIM-1-producing Klebsiella pneumoniae MS5674; experiment: Mouse infection model, K. pneumoniae MS5674, survival; assay type: in vivo, mice; conditions: MPM 4 mg/kg and SPC 10 mg/kg versus MPM alone, K. pneumoniae MS5674 1 × 10^7 CFU
Experimental: as §1

[15] = Human liver microsomal stability test; assay type: in vitro ADME; conditions: 100 nM compound, 0.1 mg protein/ml, 35 min, 37°C
Experimental: Human liver microsomal stability tests were performed by Sumika Chemical Analysis Service (Osaka, Japan). Compounds (100 nM) were incubated with human liver microsomes (0.1 mg protein/ml) for 35 min at 37°C and subjected to liquid chromatography-tandem mass spectrometry (LC-MS/MS) for quantification of the loss of the tested compounds.

[16] = PAO1, read-out: MIC of MPM without inhibitor
[17] = read-out: MIC of MPM without inhibitor
[18] = PAO1, read-out: MIC of MPM + inhibitor (10 μg/ml)
[19] = PAO1, read-out: MIC of MPM + inhibitor (50 μg/ml)
[20] = read-out: MIC of MPM + inhibitor (8 μg/ml)
[21] = read-out: MIC of MPM + inhibitor (32 μg/ml)

Compound: C[C@@H](O)[C@H]1C(=O)N2C(C(=O)O)=C(S[C@@H]3CN[C@H](C(=O)N(C)C)C3)[C@H](C)[C@H]12 [MPM, meropenem, reference compound]
- Rescue of infected mice by monotherapy ([1]; SFC 100 mg/kg or MPM 0.2 mg/kg i.p. at 1 and 3 h after infection, within 48 h): failed to rescue mice
- MIC [2]: 8 µg/mL
- MIC [3, 16]: 8 µg/mL
- MIC ([4]; read-out: MIC of MPM alone): ≥ 2 µg/mL
- MIC [5, 16]: 128 µg/mL
- MIC (E. coli DH5α/pBC-NDM-1; [17]): 64 µg/mL
- MIC [6]: 0.5 µg/mL
- MIC of MPM without inhibitor (E. coli DH5α/pBC-IMP-1; E. coli DH5α/pBC-IMP-1): 1 µg/mL
- MIC (E. coli DH5α/pBC-IMP-1; [17]): 1 µg/mL
- MIC [7, 17]: 16 µg/mL
- MIC [8, 16]: 32 µg/mL
- MIC (E. coli DH5α/pBC-TMB-2; [17]): 16 µg/mL

Compound: CCc1c(C(=O)O)c(S(N)(=O)=O)c(CC)n1C [SPC, 2,5-diethyl-1-methyl-4-sulfamoylpyrrole-3-carboxylic acid]
- Toxicity in HeLa cells (HeLa cells): low toxicity
- Mortality of infected mice under MPM-SPC combination therapy ([1]; MPM 0.8 mg/kg and SPC 10 mg/kg versus MPM alone, E. coli NUBL-24 1 × 10^7 CFU): significantly reduced the mortality
- Isolates whose MPM MIC decreased to susceptibility criteria (MIC ≤1 μg/ml) ([9]; addition of inhibitor, concentration not given (Fig. S5)): 7/14
- Isolates with equal or increased reactivity toward SPC instead of SFC ([9]; reduction in MPM MIC, 4 μg/ml SPC and SFC): 14/14
- MIC [3, 18]: 4 µg/mL
- MIC [3, 19]: 4 µg/mL
- Isolates whose MPM MIC decreased to susceptibility criteria (MIC ≤2 μg/ml) [10]: 6/8
- MIC [11, 20]: 0.125 µg/mL
- MIC [11, 21]: 0.063 µg/mL
- Isolates whose MPM MIC decreased to susceptibility criteria (MIC ≤1 μg/ml) ([4]; addition of inhibitor, concentration not given (Fig. S5), IMP-producing Enterobacteriaceae): 17/19
- Isolates with equal or increased reactivity toward SPC instead of SFC ([4]; reduction in MPM MIC, 4 μg/ml SPC and SFC, IMP producers): 18/19
- MIC [5, 18]: 64 µg/mL
- MIC [5, 19]: 16 µg/mL
- Reduction in MPM MIC (E. coli DH5α/pBC-NDM-1; E. coli DH5α/pBC-NDM-1, 2 μg/ml compound): 256 fold
- MIC (E. coli DH5α/pBC-NDM-1; [20]): ≤ 0.25 µg/mL
- MIC (E. coli DH5α/pBC-NDM-1; [21]): ≤ 0.25 µg/mL
- Ki (IMP-1): 260 nM
- MIC [12, 20]: 2 µg/mL
- MIC [12, 21]: 0.063 µg/mL
- Reduction in CAZ MIC (E. coli DH5α/pBC-VIM-2; E. coli DH5α/pBC-VIM-2, 2 μg/ml compound): 16 fold
- MIC (E. coli DH5α/pBC-VIM-2; read-out: MIC of CAZ + inhibitor (8 μg/ml)): 1 µg/mL
- MIC (E. coli DH5α/pBC-VIM-2; read-out: MIC of CAZ + inhibitor (32 μg/ml)): 1 µg/mL
- Ki (NDM-1): 840 nM
- Ki (VIM-2): 20 nM
- Reduction in MPM MIC (E. coli DH5α/pBC-IMP-1; E. coli DH5α/pBC-IMP-1, 2 μg/ml compound): 32 fold
- MIC (E. coli DH5α/pBC-IMP-1; [20]): 0.031 µg/mL
- MIC (E. coli DH5α/pBC-IMP-1; [21]): 0.031 µg/mL
- MIC [7, 20]: 1 µg/mL
- MIC [7, 21]: 0.125 µg/mL
- MIC [13, 20]: 0.063 µg/mL
- MIC [13, 21]: 0.063 µg/mL
- MIC [8, 18]: 8 µg/mL
- MIC [8, 19]: 4 µg/mL
- Mortality of infected mice under MPM-SPC combination therapy [14]: significantly reduced the mortality
- Stability in human liver microsomes [15]: high stability
- MIC (E. coli DH5α/pBC-TMB-2; [20]): 0.063 µg/mL
- MIC (E. coli DH5α/pBC-TMB-2; [21]): 0.031 µg/mL
